Experimental data: patent publication US20020137929A1, “1 - (3-heterocyclylphenyl) isothiourea, -isourea, -guanidine and -amidine herbicidal agents” (Intellectual Property Department, BASF Aktiengesellschaft, priority 1998, published 2002)

How the values were obtained:
[1] = system: SETVI (Foxtail, Green); experiment: Preemergence herbicidal evaluation; type: in vivo, Setaria viridis; details: rated 4-5 weeks after treatment
Procedure, shortened: (§1)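 Seeds were planted in potting soil in cups, then sprayed preemergence with the test compound in aqueous acetone at about 0.0156 to 0.500 kg per hectare. Cups were kept under greenhouse conditions and visually rated 4–5 weeks after treatment on a 0–9 scale against an untreated control.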

[2] = system: ZEAMX (Corn, Field); experiment: Preemergence herbicidal evaluation; type: in vivo, Zea mays; details: rated 4-5 weeks after treatment
Procedure, shortened: as §1

[3] = system: TRZAWR (Wheat, Winter, cv Riband); experiment: Preemergence herbicidal evaluation; type: in vivo, Triticum aestivum; details: rated 4-5 weeks after treatment
Procedure, shortened: as §1

[4] = system: CYPIR (Rice Flatsedge); experiment: Preemergence weed control under flooded paddy conditions; type: in vivo, Cyperus iria; details: rated 3-4 weeks after treatment
Procedure, shortened: (§2)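 Seeds or propagules sown in silt loam kept flooded 1.5-3 cm; compounds in 50/50 acetone/water pipetted into flood water at about 0.0313 to 0.500 kg/ha. Greenhouse; visual 0-9 rating versus untreated control 3-4 weeks after treatment.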

[5] = system: CYPSE (Flatsedge); experiment: as above; type: in vivo, Cyperus serotinus; details: rated 3-4 weeks after treatment
Procedure, shortened: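 Silt loam, seeds in top 0.5 cm; flood held 1.5-3 cm; test cpd as acetone/water 50/50 into flood water, ~0.0313-0.500 kg/ha a.i.; greenhouse 3-4 wk; visual 0-9 score vs control.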

[6] = system: ECHORC (Watergrass (Calif.)); experiment: Postemergence weed control under flooded paddy conditions; type: in vivo, Echinochloa oryzoides; details: postemergence weeds, rated 3 to 4 weeks after treatment
Procedure, shortened: (§3)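 With weeds 3 to 5 cm tall and rice at the 1.5 to 2.5 leaf stage, containers were flooded and water held 1.5 to 3 cm above soil. Compounds in 50/50 v/v aqueous/acetone went into the flood water at about 0.0313 to 0.500 kg/ha a.i. Effects were visually rated 0–9 against controls after three to four weeks in the greenhouse.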

[7] = system: SAGPY (Arrowhead (Pygmaea)); experiment: as above; type: in vivo, Sagittaria pygmaea; details: postemergence weeds, rated 3 to 4 weeks after treatment
Procedure, shortened: as §3

[8] = system: CYPIR (Rice Flatsedge); experiment: as above; type: in vivo, Cyperus iria; details: postemergence weeds, rated 3 to 4 weeks after treatment
Procedure, shortened: as §3

[9] = system: ECHCG (Barnyardgrass); experiment: Preemergence herbicidal evaluation; type: in vivo, Echinochloa crus-galli; details: rated 4-5 weeks after treatment
Procedure, shortened: as §1

[10] = system: ECHORC (Watergrass (Calif.)); experiment: Preemergence weed control under flooded paddy conditions; type: in vivo, Echinochloa oryzoides; details: rated 3-4 weeks after treatment
Procedure, shortened: as §2

[11] = system: ZEAMX (Corn, Field); experiment: Postemergence herbicidal evaluation; type: in vivo, Zea mays
Procedure, shortened: (§4)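 First, seedlings were raised for around two weeks. Next, test material in 50/50 acetone/water containing 0.5% TWEEN 20 was sprayed through a nozzle at 40 psi, equivalent to about 0.0156–0.500 kg/ha. Finally, after 4–5 weeks in the greenhouse, plants were rated 0–9.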

[12] = system: CYPSE (Flatsedge); experiment: Postemergence weed control under flooded paddy conditions; type: in vivo, Cyperus serotinus; details: postemergence weeds, rated 3 to 4 weeks after treatment
Procedure, shortened: as §3

[13] = system: SETVI (Foxtail, Green); experiment: Postemergence herbicidal evaluation; type: in vivo, Setaria viridis
Procedure, shortened: as §4

[14] = system: ORYSAT (Rice, Tebonnet); experiment: Postemergence herbicidal evaluation; type: in vivo, Oryza sativa, (L.) Tebonnet
Procedure, shortened: as §4

C=CCN1C(=O)C(CC(=O)O)SC1=Nc1cc(-n2c(=O)cc(C(F)(F)F)n(C)c2=O)c(F)cc1Cl (centres unmarked) [Compound 62, 3-Allyl-2-{{2-chloro-5-[3,6-dihydro-3-methyl-2,6-dioxo-4-(trifluoromethyl)-1(2H)-pyrimidinyl]-4-fluorophenyl}imino}-4-oxo-5-thiazolidineacetic acid]
Preemergence herbicidal rating SETVI ([1]; rate 0.0156 kg/ha): 0.0
Preemergence herbicidal rating SETVI ([1]; rate 0.0313 kg/ha): 0.0
Preemergence herbicidal rating SETVI ([1]; rate 0.0625 kg/ha): 6.0
Preemergence herbicidal rating SETVI ([1]; rate 0.1250 kg/ha): 9.0
Preemergence herbicidal rating SETVI ([1]; rate 0.2500 kg/ha): 9.0
Preemergence herbicidal rating ZEAMX ([2]; rate 0.0156 kg/ha): 0.0
Preemergence herbicidal rating ZEAMX ([2]; rate 0.0313 kg/ha): 1.0
Preemergence herbicidal rating ZEAMX ([2]; rate 0.0625 kg/ha): 1.0
Preemergence herbicidal rating ZEAMX ([2]; rate 0.1250 kg/ha): 3.0
Preemergence herbicidal rating ZEAMX ([2]; rate 0.2500 kg/ha): 7.0
Preemergence herbicidal rating TRZAWR ([3]; rate 0.0156 kg/ha): 0.0
Preemergence herbicidal rating TRZAWR ([3]; rate 0.0625 kg/ha): 1.0
Preemergence herbicidal rating TRZAWR ([3]; rate 0.1250 kg/ha): 1.0
Preemergence herbicidal rating TRZAWR ([3]; rate 0.2500 kg/ha): 2.0
CYPIR herbicidal effect rating ([4]; 0.0313 kg/ha): 0.0
CYPIR herbicidal effect rating ([4]; 0.0625 kg/ha): 2.0
CYPIR herbicidal effect rating ([4]; 0.1250 kg/ha): 9.0
CYPIR herbicidal effect rating ([4]; 0.2500 kg/ha): 9.0
CYPSE herbicidal effect rating ([5]; 0.0313 kg/ha): 0.0
CYPSE herbicidal effect rating ([5]; 0.0625 kg/ha): 0.0
CYPSE herbicidal effect rating ([5]; 0.1250 kg/ha): 0.0
CYPSE herbicidal effect rating ([5]; 0.2500 kg/ha): 0.0
Herbicidal rating ECHORC ([6]; Rate 0.0313 kg/ha): 0.0
Herbicidal rating ECHORC ([6]; Rate 0.0625 kg/ha): 0.0
Herbicidal rating ECHORC ([6]; Rate 0.1250 kg/ha): 2.0
Herbicidal rating ECHORC ([6]; Rate 0.2500 kg/ha): 5.0
Herbicidal rating SAGPY ([7]; Rate 0.0313 kg/ha): 0.0
Herbicidal rating SAGPY ([7]; Rate 0.0625 kg/ha): 0.0
Herbicidal rating SAGPY ([7]; Rate 0.1250 kg/ha): 3.0
Herbicidal rating SAGPY ([7]; Rate 0.2500 kg/ha): 6.0
Herbicidal rating CYPIR ([8]; Rate 0.0313 kg/ha): 0.0
Herbicidal rating CYPIR ([8]; Rate 0.0625 kg/ha): 2.0
Herbicidal rating CYPIR ([8]; Rate 0.1250 kg/ha): 9.0
Herbicidal rating CYPIR ([8]; Rate 0.2500 kg/ha): 9.0
Preemergence herbicidal rating ECHCG ([9]; rate 0.0156 kg/ha): 0.0
Preemergence herbicidal rating ECHCG ([9]; rate 0.0313 kg/ha): 0.0
Preemergence herbicidal rating ECHCG ([9]; rate 0.0625 kg/ha): 1.0
Preemergence herbicidal rating ECHCG ([9]; rate 0.1250 kg/ha): 3.0
Preemergence herbicidal rating ECHCG ([9]; rate 0.2500 kg/ha): 7.0
ECHORC herbicidal effect rating ([10]; 0.0313 kg/ha): 0.0
ECHORC herbicidal effect rating ([10]; 0.0625 kg/ha): 0.0
ECHORC herbicidal effect rating ([10]; 0.1250 kg/ha): 2.0
ECHORC herbicidal effect rating ([10]; 0.2500 kg/ha): 5.0
Postemergence herbicidal rating ZEAMX ([11]; Rate 0.0158 kg/ha): 7.5
Postemergence herbicidal rating ZEAMX ([11]; Rate 0.0315 kg/ha): 8.0
Postemergence herbicidal rating ZEAMX ([11]; Rate 0.0630 kg/ha): 8.0
Herbicidal rating CYPSE ([12]; Rate 0.0313 kg/ha): 0.0
Herbicidal rating CYPSE ([12]; Rate 0.0625 kg/ha): 0.0
Herbicidal rating CYPSE ([12]; Rate 0.1250 kg/ha): 0.0
Herbicidal rating CYPSE ([12]; Rate 0.2500 kg/ha): 0.0
Postemergence herbicidal rating SETVI ([13]; Rate 0.0158 kg/ha): 9.0
Postemergence herbicidal rating SETVI ([13]; Rate 0.0315 kg/ha): 9.0
Postemergence herbicidal rating SETVI ([13]; Rate 0.0630 kg/ha): 8.0
Postemergence herbicidal rating ORYSAT ([14]; Rate 0.0158 kg/ha): 4.5
Postemergence herbicidal rating ORYSAT ([14]; Rate 0.0315 kg/ha): 5.0
Postemergence herbicidal rating ORYSAT ([14]; Rate 0.0630 kg/ha): 7.0
